According to patent US20020102678A1, “Staphylococcal gene, vgaC, conferring resistance to streptogramin A and related compounds” (priority 2000, published 2002):

Tests used:
[1] = test system: BM3327, S. aureus clinical isolate; assay: MIC by serial twofold dilutions in MHA, strain BM3327; type: cell-based
Experimental: (§1) Staphylococci were grown in Brain Heart Infusion (Difco Laboratories, Detroit, Mich.), and E. coli cells were grown in Luria broth (10 g.1^−1 of tryptone, 5 g.^−1 of yeast extract, and 10 g.1^−1 of NaCl) Solid media contained 15 g.1^−1 of agar. Bacteria were incubated at 37° C. and for liquid cultures with agitation. Susceptibility to antibiotics was tested on Mueller-Hinton agar (MHA) (Diagnostics Pasteur, Marne-la-Coquette, France).
(§2) Susceptibility to antibiotics was determined by a disk diffusion assay (12) with commercially available antibiotic disks (Diagnostics Pasteur) and disks prepared in our laboratory as described previously (18). MICs of pristinamycin IIA and pristinamycin (Rhône-Poulenc Rorer) were determined with serial twofold dilutions of antibiotics in MHA, as described previously (2, 17).

[2] = test system: four S. aureus isolates (BM3249, BM3250, BM3252 and BM3327); assay: MICs of the four isolates used in filter mating; type: cell-based; settings: range over BM3249, BM3250, BM3252 and BM3327
Experimental: as §1, §2
Each of the four S. aureus isolates (BM3249, BM3250, BM3252 and BM3327: Table 1) resistant to PIIA (MICs : 64-128 mg. 1^−1) and related antibiotics was crossed on a membrane filter with the S. aureus recipient strain, ISP1127 (26). No transcipients were obtained by selection on pristinamycin IIA (frequency<10^−10 transcipients/donor).

resistant staphylococci = settings: staphylococci resistant to A compounds; cited from earlier work
[3] = test system: BM3252, S. aureus clinical isolate; assay: MIC by serial twofold dilutions in MHA, strain BM3252; type: cell-based
Experimental: as §1, §2

[4] = test system: BM3250, S. aureus clinical isolate; assay: MIC by serial twofold dilutions in MHA, strain BM3250; type: cell-based
Experimental: as §1, §2

RN4220 [pRB374] = assay: MIC by serial twofold dilutions in MHA, transformant with the empty vector; type: cell-based; settings: S. aureus RN4220 [pRB374], vector without vgaC
Experimental: as §1, §2
(§3) A DNA fragment of 1827-bp including vgaC was amplified with primers C and D (FIG. 1) from the cellular DNA of BM3327. This amplicon was cleaved with BamHl and KpnI and inserted between the BamHl and KpnI sites of the shuttle vector, pRB374 (11), downstream from the vegII promoter carried by this vector. The resulting plasmid, pIP1810, was introduced by electroporation into the S. aureus recipient RN4220. It conferred resistance to pristinamycin IIA (MICs: 32 mg.1^−1 for RN4220 [pIP18101, and 2 mg.1^−1 for RN4220 [pRB374]).

[5] = test system: BM3318, S. aureus clinical isolate; assay: MIC by serial twofold dilutions in MHA, strain BM3318; type: cell-based
Experimental: as §1, §2

[6] = test system: BM3249, S. aureus clinical isolate; assay: MIC by serial twofold dilutions in MHA, strain BM3249; type: cell-based
Experimental: as §1, §2

[7] = test system: BM21926, S. aureus transformant: RN4220 (pIP 1810); assay: MIC by serial twofold dilutions in MHA, transformant carrying vgaC; type: cell-based; settings: S. aureus RN4220 (pIP1810, carries vgaC) = BM21926
Experimental: as §1, §2, §3

## CC1=C\[C@@H](O)CC(=O)Cc2nc(co2)C(=O)N2CCC=C2C(=O)O[C@H](C(C)C)[C@H](C)/C=C/C(=O)NC\C=C\1 [pristinamycin IIA]
[1]
  MIC: 128 mg.1^−1
[2]
  MICs: 64-128 mg. 1^−1
Resistant staphylococci
  MICs: 8 mg.1^1
[3]
  MIC: 64 mg.1^−1
[4]
  MIC: 64 mg.1^−1
RN4220 [pRB374]
  MIC: 2 mg.1^−1
[5]
  MIC: 128 mg.1^−1
[6]
  MIC: 64 mg.1^−1
[7]
  MIC: 32 mg.1^−1
[7]; listed as SgA
  MIC: SgA (32 mg.1^−1) Km Nm Tm
